Data reported in article PMC9525908, “α-Crystallin chaperone mimetic drugs inhibit lens γ-crystallin aggregation: Potential role for cataract prevention” (The Journal of Biological Chemistry, 2022).
Substitutions are numbered along the chain they refer to. Entries after “also recorded” stand apart in the source; their conditions may differ.

Columns and labels:
Type in all cases: biochemical
bovine gamma crystallins = test: Screen: H2O2 and heat mediated aggregation of bovine gamma crystallins, turbidimetry at 600 nm; conditions: 500 μM compound, H2O2 with or without added thermal stress
Description: For the initial screen, a microtiter plate assay was developed in which bovine crystallins (2 mg/ml of 50 mM K3PO4 buffer, pH 7.2 [buffer A]) were exposed to H2O2 at varying concentrations (1–50 mM) for 12 to 36 h, upon which turbidity developed (at 50 mM H2O2 concentration) in both β- and γ-crystallins (Fig. 1, A and B). […] This was determined by turbidimetry at 600 nm (Fig. 1C) and confirmed using visual assessment of solution transparency over a fine text as well as the presence of cloudy aggregates visible by dark field microscopy (Fig. 1D). The drug:protein stoichiometric ratio was about 5:1. The wavelength of 600 nm was chosen to minimize interference by colored compounds, many of which absorb below 500 nm (Fig. 1E).
Wells were filled with 90 μl calf γ-crystallin-rich protein solution (pool 4 at 2 mg/ml) followed by 0.5 to 5.0 μl of drug (all 10 mM stock solution in DMSO) as supplied by the manufacturer and 10 μl H2O2 (450 mM stock solution in water) and sealed with sticky Applied Biosystems MicroAmp Clear Adhesive films (Life Technologies). Control wells received DMSO only. […] In order to quantitate the impact of the drugs on aggregation, a fitness plot was created (Fig. 1 C) that allowed us to identify wells with enhanced/worsening versus suppressed crystallin aggregation. In addition, aggregation in each well was also visually assessed by two independent “blinded” readers for the ability to read fine print through each well by placing the plates over small font text (Fig. 1D). Both machine and visual readouts were reconciled in order to increase robustness.

Bovine γ-crystallins = test: Thermal aggregation (72 °C) turbidity assay, bovine γ-crystallins (pool 4); conditions: for Thermal denaturation inhibitory activity in subscreen: 150 μM; for Thermal denaturation inhibitory activity in subscreen / % Suppression: 72 °C 20 min; for % Suppression: 75 μM protein, 125 μM or less inhibitor (1.7:1)
Description: Candidate compounds were rescreened using thermal denaturation upon heating at 72 °C for 20 min according to Chen et al. ([36]) in order to select for compounds with chaperone rather than antioxidant activity since a large number of the latter already exist in the cataract field ([37]).
(§1) For a review, see the study by Roskamp et al. ([38]). […] For the mechanistic studies below these two compounds together with either drug M, chosen mostly as negative control, or the entire set of six compounds were used for comparison purpose, whereby the words “drug” or “compound” are used interchangeably in the studies later.
All assays were carried out manually in CORNING #9017 Costar Assay 96-well plates. Wells were filled with 90 μl calf γ-crystallin-rich protein solution (pool 4 at 2 mg/ml) followed by 0.5 to 5.0 μl of drug (all 10 mM stock solution in DMSO) as supplied by the manufacturer and 10 μl H2O2 (450 mM stock solution in water) and sealed with sticky Applied Biosystems MicroAmp Clear Adhesive films (Life Technologies). Control wells received DMSO only. Plates were shaken for 2 min and incubated from 24 to 72 h in a culture room at 37 °C. […] A second reading was performed following a heat shock of 20 min at 72 °C as described by Chen et al. ([36]) in order to capture drugs with heat-resistant chaperone activity. In order to quantitate the impact of the drugs on aggregation, a fitness plot was created (Fig. 1 C) that allowed us to identify wells with enhanced/worsening versus suppressed crystallin aggregation. In addition, aggregation in each well was also visually assessed by two independent “blinded” readers for the ability to read fine print through each well by placing the plates over small font text (Fig. 1D). Both machine and visual readouts were reconciled in order to increase robustness.
(§2) Final DMSO concentration was 5% including in control samples. Microtiter plates were first incubated for 10 min at 72 °C and reincubated for 10 more min. Absorbance was measured at both 10 and 20 min total incubation time.

HγD = target: T1, HγD (Homo sapiens, UniProt P07320); test: Thermal aggregation (72 °C) turbidity assay, recombinant HγD
T1 construct: made in house; host or cells: E. coli BL21(DE3) pLysS, pET3d vector
T1 sequence (P07320 1-174): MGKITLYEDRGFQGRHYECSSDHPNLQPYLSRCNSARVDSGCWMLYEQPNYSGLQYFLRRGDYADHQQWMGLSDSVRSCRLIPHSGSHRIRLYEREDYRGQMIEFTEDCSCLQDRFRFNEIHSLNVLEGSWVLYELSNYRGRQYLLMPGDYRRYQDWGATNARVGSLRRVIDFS
Description: For refinement of the aforementioned screen, these compounds were tested at concentrations varying from 50 to 500 μM and 1.5 mg/ml concentration of recombinant HγD, human gamma S (HγS), its deamidation mutants γS_N14, γS_N76, γS_N143 and its triple mutant γSTM (Fig. 1F). In addition, other drugs and compounds that tested positive in the initial screen were also included, such as escin (E), hematein (I), citric acid (CA), docusate sodium (DS), and sennoside A (S) (Fig. S1B). […] For a review, see the study by Roskamp et al. ([38]). […] Thus, drug C and drug G emerged as the strongest antidenaturation/aggregation and potential anticataract drugs. For the mechanistic studies below these two compounds together with either drug M, chosen mostly as negative control, or the entire set of six compounds were used for comparison purpose, whereby the words “drug” or “compound” are used interchangeably in the studies later.
(§3) For end-point assays, HγD and MγS (1 mg/ml, 100 μl) in 50 mM K3PO4 buffer (pH 7.2) in set of triplicates in transparent flat bottom 96-well plates were heated at 72 °C for 20 min in the presence and absence of selected drugs at varying concentrations. Absorbance was measured at 600 nm with a SpectraMax iD5 (Molecular Devices).
HγD protein (2.5 mg/ml buffer A) was incubated at 72 °C for 20 min without or with 100 or 400 μM drug G or C in buffer A. Final DMSO concentration was 5% in all samples. […] Therefore, samples with and without 400 μM drug G were chosen for identification of drug G-induced miscleavage sites upon digestion with 25:1 protein:trypsin ratio (sequencing grade modified trypsin; Promega) in buffer A. After 4 h, samples were frozen at −80 °C until processed for determination of miscleavage sites using proteomics analysis. LC–MS/MS analysis was performed on an Orbitrap Eclipse mass spectrometer (Thermo Fisher Scientific) coupled with a Waters nanoAcquity UPLC system (Waters) in total 90 min run using a linear gradient range from 0 to 42% solvent B (0.1% formic acid in acetonitrile) versus solvent A (0.1% formic acid in water) at a flow rate of 300 nl/min. MS1 full mass spectra were acquired in the Orbitrap mass analyzer at the resolution of 120 K. MS/MS tandem mass spectra were generated in the ion trap mass analyzer by collision-induced dissociation of peptide ions at a normalized collision energy of 35%. The resulting MS/MS spectra were searched against human gamma D protein database using Mass Matrix software (MassMatrix, Inc) with the mass errors of 10 ppm and 0.8 Da for MS1 and MS/MS scans, respectively. The oxidation of methionine was set for variable modifications, and three miscleavages were allowed for the search.
as §2

WT-MγS = target: T2, WT-MγS (Mus musculus, UniProt O35486); test: End-point heat-mediated turbidity assay, WT-MγS; conditions: 400 μM drug, 72 °C, protein above 0.5 mg/ml
T2 construct: made in house; host or cells: E. coli BL21(DE3) pLysS, pET17b vector
T2 sequence (O35486 1-178): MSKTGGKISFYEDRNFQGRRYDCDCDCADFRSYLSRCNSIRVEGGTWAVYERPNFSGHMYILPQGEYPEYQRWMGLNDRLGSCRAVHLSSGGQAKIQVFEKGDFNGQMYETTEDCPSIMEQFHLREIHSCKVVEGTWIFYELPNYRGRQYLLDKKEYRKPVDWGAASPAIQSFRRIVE
Description: as §3, with “Devices). […]” for “Devices).”
as §2

HγS = target: T3, HγS (Homo sapiens, UniProt P22914); test: Thermal aggregation (72 °C, 20 min) turbidity assay, HγS; conditions: HγS; 75 μM protein, 125 μM or less inhibitor (1.7:1), 72 °C 20 min
T3 sequence (P22914 1-178): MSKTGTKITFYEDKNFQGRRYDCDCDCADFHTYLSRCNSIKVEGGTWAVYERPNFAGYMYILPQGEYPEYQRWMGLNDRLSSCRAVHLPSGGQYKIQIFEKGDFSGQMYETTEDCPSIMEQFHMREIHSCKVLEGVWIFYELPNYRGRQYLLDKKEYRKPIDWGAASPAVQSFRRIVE
Description: as §1

HγS_N143D = target: T4, HγS_N143D (Homo sapiens, UniProt P22914, N144D); test: Thermal aggregation (72 °C, 20 min) turbidity assay, HγS_N143D; conditions: HγS_N143D; 75 μM protein, 125 μM or less inhibitor (1.7:1), 72 °C 20 min
T4 sequence (P22914 1-178 N144D): T3 sequence (P22914 1-178) with N144D
Description: as §1

| Molecule | Outcome in the library screen (effect on aggregation/turbidity at 600 nm) (bovine gamma crystallins) | also measured |
| --- | --- | --- |
| Cc1c(C(=O)O)c(O)cc2c1C(=O)c1c(O)c(C3O[C@H](CO)[C@@H](O)[C@H](O)[C@H]3O)c(O)c(O)c1C2=O (stereo in doubt) [carmine] | no impact | – |
| O=C(O)CC(O)(CC(=O)O)C(=O)O [CA, citric acid] | positive | – |
| CCCCCCCCCCCCCCCCC(C(=O)O)C(O)(CC(=O)O)C(=O)O (centres unmarked) [drug A, agaric acid] | – | Effect on BGC aggregation at 2.0 mg/ml at 10 min (Bovine γ-crystallins; 400 μM drug, 72 °C, 10 min): improved BGC aggregation; also recorded: protects; Effect on HγD aggregation at low protein (HγD; 400 μM drug, 72 °C): not; Effect on HγD at 2.0 mg/ml and 20 min (HγD; 400 μM drug, 72 °C, 20 min): suppressed; also recorded: protects; Effect on MγS absorbance (WT-MγS): blocked absorbance; also recorded: protects |
| CCCCC(CC)COC(=O)CC(C(=O)OCC(CC)CCCC)S(=O)(=O)O (centres unmarked) [drug DS, docusate sodium] | positive | – |
| CC1=C(CCC(=O)O)c2cc3[nH]c(cc4nc(cc5[nH]c(cc1n2)c(C)c5C(C)O)C(C)=C4C(C)O)c(C)c3CCC(=O)O (centres unmarked) [drug H, hematoporphyrin] | positive | Thermal denaturation inhibitory activity in subscreen (Bovine γ-crystallins): thermal denaturation inhibitory activity |
| O=C1C=C2CC3(O)COc4c(ccc(O)c4O)C3=C2C=C1O (centres unmarked) [drug I, hematein] | positive | – |
| O=C(O)c1cc(O)c2c(c1)[C@H]([C@H]1c3cc(C(=O)O)cc(O)c3C(=O)c3c(O[C@@H]4O[C@H](CO)[C@@H](O)[C@H](O)[C@H]4O)cccc31)c1cccc(O[C@@H]3O[C@H](CO)[C@@H](O)[C@H](O)[C@H]3O)c1C2=O [drug S, sennoside A] | positive | – |
| CCCCCCCCCCCCCCOS(=O)(=O)[O-].[Na+] [drug T, tetradecyl sulfate sodium] | – | Thermal denaturation inhibitory activity in subscreen (Bovine γ-crystallins): thermal denaturation inhibitory activity; % Suppression (HγS): 40%; % Suppression (HγS_N143D): 42% |
| C=CCCCCCCCCCCCC(O)CC(O)CO (centres unmarked) [drug V, avocadene] | – | Thermal denaturation inhibitory activity in subscreen (Bovine γ-crystallins): thermal denaturation inhibitory activity; % Suppression (Bovine γ-crystallins; Bovine γ-crystallins experiment 1): 36%; % Suppression (Bovine γ-crystallins; Bovine γ-crystallins experiment 2): 53% |
| O=C(O[C@@H]1Cc2c(O)cc(O)cc2O[C@@H]1c1cc(O)c(O)c(O)c1)c1cc(O)c(O)c(O)c1 [epigallocatechin gallate] | improved aggregation | – |
| COc1ccc([C@@H]2CC(=O)c3c(O)cc(O)cc3O2)cc1O [hesperetin] | no impact | – |
| CC(C)=CCC[C@@H](C)[C@H]1CC[C@@]2(C)C3=C(CC[C@]12C)[C@@]1(C)CC[C@H](O)C(C)(C)[C@@H]1CC3 [lanosterol] | no impact | – |
| O=c1c(O)c(-c2ccc(O)cc2O)oc2cc(O)cc(O)c12 [morin] | no impact | – |
| O=c1c(O)c(-c2ccc(O)c(O)c2)oc2cc(O)cc(O)c12 [quercetin] | worsened aggregation | – |
| escin [drug E] | positive | – |
| hemin | positive | – |
| pool 1: purified high–molecular weight bovine α-crystallins, used as positive control | – | Inhibition of pool 4 protein aggregation by positive control (Bovine γ-crystallins; thermal aggregation): potently inhibit; Inhibition of HγD aggregation by positive control (HγD; thermal aggregation): potently inhibit |
